Each molecule was assayed against 5-hydroxytryptamine receptor 6 (Homo sapiens, UniProt P50406) (assay: Ability to displace [3H]LSD from human 5-hydroxytryptamine 6 receptor transiently expressed in COS-7 cells).
5-hydroxytryptamine receptor 6, sequence (P50406 whole entry): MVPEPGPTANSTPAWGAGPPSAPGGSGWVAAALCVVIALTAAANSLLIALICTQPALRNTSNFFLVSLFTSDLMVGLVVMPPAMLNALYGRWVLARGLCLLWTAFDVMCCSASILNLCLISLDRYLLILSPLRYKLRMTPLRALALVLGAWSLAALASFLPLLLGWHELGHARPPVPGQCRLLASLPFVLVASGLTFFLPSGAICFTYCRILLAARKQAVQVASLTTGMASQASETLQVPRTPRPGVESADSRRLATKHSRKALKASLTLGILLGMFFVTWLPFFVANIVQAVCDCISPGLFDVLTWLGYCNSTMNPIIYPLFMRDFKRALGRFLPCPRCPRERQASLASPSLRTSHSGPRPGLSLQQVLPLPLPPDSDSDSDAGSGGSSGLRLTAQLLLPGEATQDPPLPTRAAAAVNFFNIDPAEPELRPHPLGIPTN
Assay type: cell-based
For `Nc1ccc(S(=O)(=O)n2c3ccccc3c3ccccc32)cc1`, the Ki was 49 nM. In the case of `COc1ccc2c(c1)c1c(n2S(=O)(=O)c2ccc(C)cc2)CCCC1CN(C)C` (stereo unspecified), the Ki is reported as 9.4 nM. `COc1ccc2c(c1)c1c(n2S(=O)(=O)c2ccccc2)CCCC1CN(C)C` (stereo unspecified) was tested, and the Ki was 2.3 nM. For `COc1ccc2c(c1)c1c(n2S(=O)(=O)c2ccc(I)cc2)CCCC1CN(C)C` (stereo unspecified), the Ki was 2.4 nM. `COc1ccc2c(c1)c1c(n2S(=O)(=O)c2ccc(Cl)cc2)CCCC1CN(C)C` (stereo unspecified) showed a Ki of 5 nM. Molecule `COc1ccc2c(c1)c1c(n2S(=O)(=O)c2ccc3ccccc3c2)CCCC1CN(C)C` (stereo unspecified) has a Ki of 5.1 nM. Molecule `CN(C)CC1CCCc2c1c1ccccc1n2Cc1ccccc1` (stereo unspecified) has a Ki of 64 nM. In the case of `COc1ccc2c(c1)c1c(n2S(=O)(=O)c2cccc3ccccc23)CCCC1CN(C)C` (stereo unspecified), the Ki is reported as 14 nM. `COc1ccc2c(c1)c1c(n2Cc2ccc(N)cc2)CCCC1` was tested, and the Ki was 6000 nM. In the case of `COc1ccc2c(c1)c1c(n2S(=O)(=O)c2ccc(N)cc2)CCCC1CN(C)C` (stereo unspecified), the Ki is reported as 2 nM. `COc1ccc2c(c1)c1c(n2S(=O)(=O)Cc2ccccc2)CCCC1CN(C)C` (stereo unspecified) showed a Ki of 200 nM. `COc1ccc2c(c1)c1c(n2S(=O)(=O)c2ccc(N)cc2)CCCC1` showed a Ki of 29 nM. Work on `COc1ccc(S(=O)(=O)n2c3c(c4cc(OC)ccc42)C(CN(C)C)CCC3)cc1` (stereo unspecified) yielded a Ki of 47 nM. Molecule `COc1ccc2c(c1)c1c(n2S(=O)(=O)c2cccc3cccnc23)CCCC1CN(C)C` (stereo unspecified) has a Ki of 7.6 nM. In the case of `COc1ccc(OC)c(S(=O)(=O)n2c3c(c4cc(OC)ccc42)C(CN(C)C)CCC3)c1` (stereo unspecified), the Ki is reported as 0.3 nM. `COc1ccc2c(c1)c1c(n2C(=O)c2ccc(N)cc2)CCCC1` showed a Ki of 6000 nM.
